The source of these data is ChEMBL document CHEMBL5038666, “Discovery of DNA-Targeting HDAC Inhibitors with Potent Antitumor Efficacy In Vivo That Trigger Antitumor Immunity” (J Med Chem, 2022).

The source made the active and inactive calls. The rule behind the calls is not given here.

Data set [1] has as its system B16-F10. Briefly: Antitumor immunity against mouse B16-F10 cells implanted in C57BL/6J mouse assessed as fold increase in IFN-gamma secretion by flow cytometry analysis relative to control. The format is functional.
For data set [2], the system named is B16-F10. In words: Antitumor immunity against mouse B16-F10 cells implanted in C57BL/6J mouse assessed as fold increase in CD69 expression by flow cytometry analysis relative to control. The class given is functional. A general note: Flow cytometry measures light scatter and fluorescence of single cells or particles in a stream.
For data set [3], the system named is B16-F10. In words: Antitumor immunity against mouse B16-F10 cells implanted in C57BL/6J mouse assessed as fold increase in ICOS expression by flow cytometry analysis relative to control. The class given is functional.
Data set [4] concerns B16-F10. Briefly: Antitumor immunity against mouse B16-F10 cells implanted in C57BL/6J mouse assessed as fold reduction in M2 macrophages in tumor microenvironment by flow cytometry analysis relative to control. The class given is functional.
Data set [5] has as its system B16-F10. In words: Antitumor immunity against mouse B16-F10 cells implanted in C57BL/6J mouse assessed as increase in proportion of dendritic cells by flow cytometry analysis. The class given is functional, cell-based.
Data set [6] relates to B16-F10. In words: Antitumor immunity against mouse B16-F10 cells implanted in C57BL/6J mouse assessed as fold increase of CD8+ T cells in spleen by flow cytometry analysis relative to control. The format is functional.
For data set [7], the target named is T1, Protein deacetylase HDAC6 (Homo sapiens, UniProt Q9UBN7).
T1 sequence (Q9UBN7 whole entry): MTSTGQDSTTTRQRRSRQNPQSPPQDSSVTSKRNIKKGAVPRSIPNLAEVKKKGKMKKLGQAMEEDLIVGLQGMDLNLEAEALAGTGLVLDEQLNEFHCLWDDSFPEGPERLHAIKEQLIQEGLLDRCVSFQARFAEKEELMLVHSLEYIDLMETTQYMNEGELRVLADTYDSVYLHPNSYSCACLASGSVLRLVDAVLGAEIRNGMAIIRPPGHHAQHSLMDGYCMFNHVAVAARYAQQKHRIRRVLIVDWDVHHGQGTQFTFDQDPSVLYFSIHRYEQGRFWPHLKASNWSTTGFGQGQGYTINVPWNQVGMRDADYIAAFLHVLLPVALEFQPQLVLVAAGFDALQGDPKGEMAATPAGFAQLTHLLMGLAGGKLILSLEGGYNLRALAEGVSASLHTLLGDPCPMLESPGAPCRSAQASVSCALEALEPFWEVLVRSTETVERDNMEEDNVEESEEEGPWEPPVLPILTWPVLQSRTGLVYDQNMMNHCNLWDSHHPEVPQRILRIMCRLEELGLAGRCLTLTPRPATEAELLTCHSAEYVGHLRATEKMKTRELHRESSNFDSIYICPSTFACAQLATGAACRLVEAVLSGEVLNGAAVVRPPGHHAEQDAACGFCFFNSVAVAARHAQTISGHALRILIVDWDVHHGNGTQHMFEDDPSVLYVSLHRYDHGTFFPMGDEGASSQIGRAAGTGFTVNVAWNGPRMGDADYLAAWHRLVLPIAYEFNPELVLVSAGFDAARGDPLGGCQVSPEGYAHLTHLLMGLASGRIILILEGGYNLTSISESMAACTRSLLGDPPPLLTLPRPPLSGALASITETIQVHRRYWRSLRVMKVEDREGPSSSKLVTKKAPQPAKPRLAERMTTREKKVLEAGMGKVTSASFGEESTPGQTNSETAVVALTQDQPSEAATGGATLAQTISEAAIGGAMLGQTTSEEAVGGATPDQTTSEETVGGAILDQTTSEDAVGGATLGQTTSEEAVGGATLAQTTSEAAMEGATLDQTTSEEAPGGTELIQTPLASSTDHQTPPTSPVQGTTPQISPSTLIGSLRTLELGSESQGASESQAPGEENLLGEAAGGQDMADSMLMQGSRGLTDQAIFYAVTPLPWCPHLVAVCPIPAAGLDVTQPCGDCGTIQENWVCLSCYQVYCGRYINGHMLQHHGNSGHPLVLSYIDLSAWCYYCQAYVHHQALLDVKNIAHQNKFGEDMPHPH
In words: Inhibition of HDAC6 (unknown origin) using fluorogenic substrate incubated for 30 mins by fluorescence based assay.

The nature of data set [8]: Toxicity in C57BL/6J mouse implanted with mouse B16-F10 cells assessed as lung damage at 60 mg/kg, IG administered for 12 days H and E staining based histopathological analysis. The class given is organism-based. The settings on record: in vivo, po, 288 h, time 12 day.
Data set [9] relates to B16-F10. In words: Antitumor immunity against mouse B16-F10 cells implanted in C57BL/6J mouse assessed as fold increase of CD3+ T cells in spleen by flow cytometry analysis relative to control. The format is functional.
Data set [10] deals with B16-F10. In words: Antitumor immunity against mouse B16-F10 cells implanted in C57BL/6J mouse assessed as fold reduction in macrophages in tumor microenvironment by flow cytometry analysis relative to control. The format is functional.
Data set [11] concerns B16-F10. In words: Antitumor immunity against mouse B16-F10 cells implanted in C57BL/6J mouse assessed as fold increase in CD107a expression by flow cytometry analysis relative to control. The format is functional.
Data set [12] deals with B16-F10. Briefly: Antitumor immunity against mouse B16-F10 cells implanted in C57BL/6J mouse assessed as fold increase of CD4+ T cells in spleen by flow cytometry analysis relative to control. The format is functional.
The test system of data set [13] is B16-F10. In words: Antitumor immunity against mouse B16-F10 cells implanted in C57BL/6J mouse assessed as increase in proportion of T cells in spleen by flow cytometry analysis. The class given is functional, cell-based.
The subject of data set [14] is Calf thymus DNA. Briefly: Binding affinity to calf thymus DNA assessed as change in entropy at 500 microM by isothermal titration calorimetric analysis. The settings on record: Bos taurus. The format is nucleic-acid assay. Background: ITC needs no label: the signal is the heat of the interaction.
Data set [15] has as its system KG-1. Briefly: Downregulation of SPT16 expression in human KG-1 cells assessed as chromatin damage at 0.5 to […] measured after 24 hrs by Western blot analysis. Particulars: dose 0.5-2.5 µM. The class given is functional, cell-based. Background: In western blotting, separated proteins are transferred to a membrane and probed.
Data set [16] relates to Calf thymus DNA. Briefly: Binding affinity to calf thymus DNA assessed as increase in absorption at 20 uM by UV-vis absorption spectroscopy. The format is nucleic-acid assay. Particulars: Bos taurus.
Data set [17] has as its system KG-1. In words: Downregulation of SSRP-1 expression in human KG-1 cells assessed as chromatin damage at 0.5 to […] measured after 24 hrs by Western blot analysis. Particulars: dose 0.5-2.5 µM. The format is functional, cell-based.
Data set [18] has as its system KG-1. Briefly: Induction of apoptosis in human KG-1 cells measured after 24 hrs by Annexin V-FITC/propidium iodide staining based flow cytometry analysis. The format is functional, cell-based. Particulars: dose 0.5-1 µM.
Data set [19] has as its target T2, Histone deacetylase (Homo sapiens) (UniProt Q13547+O15379+Q9UBN7+Q92769+Q9UQL6+Q8WUI4+Q9BY41+Q96DB2+P56524+Q9UKV0+Q969S8). In words: Inhibition of HDAC in human KG-1 cells assessed as increase in acetylation of histone H3 measured after 24 hrs by Western blot analysis. Particulars: dose 0.5-2.5 µM. The format is cell-based.
The subject of data set [20] is KG-1. In words: Potency index, ratio of SAHA IC50 to test compound IC50 for antiproliferative activity against human KG1 cells assessed as inhibition of cell growth measured after 48 hrs by MTT assay. The class given is functional.
For data set [21], the target named is T2, Histone deacetylase (Homo sapiens). Briefly: Inhibition of HDAC in human KG1 cells assessed as increase in acetylation of alpha tubulin measured after 24 hrs by Western blot analysis. The class given is cell-based. Particulars: KG-1, dose 0.5-2.5 µM.
In data set [22] the test system is KG-1. Briefly: Induction of apoptosis in human KG-1 cells assessed as increase in cleaved active caspase 3 level at 0.5 to […] measured after 24 hrs by Western blot analysis. The class given is functional, cell-based. The settings on record: dose 0.5-2.5 µM.
Data set [23] has as its system KG-1. In words: Induction of apoptosis in human KG-1 cells assessed as total apoptotic cells at 1 uM measured after 24 hrs by Annexin V-FITC/propidium iodide staining based flow cytometry analysis relative to control. The format is functional.

For the compound `O=C(CCCCCCCOc1cccc(-c2nc3ccccc3[nH]2)c1)NO`, the “fold change (FC)” value amounted to 1.5 in [1]; 1.5 in [2]; 1.5 in data set [3]; 1.5 in [4]; 1.5 in data set [6]; 1.6 in data set [9]. For the same compound, the figures for the “fold change (FC)” value in data set [10], in [11] and in data set [12] were 1.7, 1.5 and 2, respectively. Also, in data set [5], the result was inactive. In [7], this compound registered an IC50 of 9.2 nM. Moreover, in data set [8], the Activity result is “Non-Toxic”.
Regarding `O=C(CCCCCCOc1cccc(-c2nc3ccccc3[nH]2)c1)NO`, the outcome in data set [13], in data set [15], in [16], in data set [17] and in data set [22] was Active. For the same compound, the -TdeltaS in [14] stood at 74 kcal/mol. Further, in [7], the half-inhibitory concentration (IC50) came out at 47 nM. For the same compound, the Activity entry is “Dose-Dependent Effect” in [18], “Dose-Dependent Effect” in data set [19], “Dose-Dependent Effect” in data set [21] and 56.9% in data set [23]. Also, the “fold change (FC)” value in [20] was determined as 50; in [10], 1.7.

The IC50 is the concentration that gives 50% inhibition.
